Test results reported in paper PMC10723784, “Investigation of the cytotoxicity induced by cannabinoids on human ovarian carcinoma cells” (Pharmacology Research & Perspectives, 2023).
Like-named read-outs stand apart in the source and are kept apart here.

Legend:
[1] = system: A2780 cells; assay: Mitochondrial membrane potential assay (JC-1), A2780 cells; assay type: cell-based, human; conditions: A2780, 10-50 μM, 24 h, dose-dependent
Procedure: The mitochondrial membrane potential assay was performed to detect the loss in mitochondrial potential (de‐polarization), which is a vital step in apoptosis.[36] Cells were seeded in T25 flasks at 4 × 10^5 cells per flask and were incubated for 48 h or until they reached confluency. After the incubation time elapsed, drugs at concentrations of 10, 30, and 50 μM or vehicle were added to the flasks and further incubated for 24 h. After 24 h elapsed, the cells were harvested and suspended in PBS. Cell viability and number were determined by the cell viability assay using via1 cassettes on NC‐3000 system. The samples were diluted in PBS to 1 × 10^6 cells/mL and 2.5 μg/mL of JC‐1 dye was added to each sample. JC‐1 is a […] dye, which stains as fluorescent red as it aggregates in the mitochondrial matrix. In the absence of mitochondrial membrane potential, JC‐1 localizes in the cytosol in its fluorescent green form. Following the addition of JC‐1, the cells were incubated for 10–30 min at 37°C. […] 12.5 μL of samples were loaded on to an A‐8 slide and were analyzed using the NC‐3000 image cytometry. The degree of apoptosis (in proportional to the loss in mitochondrial membrane potential) was measured using a scatter plot of JC‐1 red fluorescence versus JC‐1 green fluorescence.

[2] = system: caspase 3/7 activity in A2780/CP70 cells; assay: Caspase 3/7 assay, A2780/CP70 cells; assay type: cell-based, human; conditions: A2780/CP70, 24 h contact time, dose-dependent, significant above 10 μM
Procedure: (§1) Sensolyte homogenous caspase 3/7 assay kit was used to determine the caspase activity in ovarian cancer cells when treated with CBG. Cells were seeded in 96‐well plate at 6 × 10^3 cells per well and were incubated for 24 h. CBG was added in concentrations of 10, 20, 30, and 50 μM and incubated for a further 24 h. After the incubation time elapsed, the media was removed and replaced with 150 μL/well of fresh complete media. Caspase 3/7 solution was prepared by diluting the caspase substrate 1:100 with DTT‐containing assay buffer. 50 μL/well caspase substrate was added to the plates, and the cells were incubated for 30 min. Ac‐DEVD‐AMC serves as the fluorogenic indicator for assaying caspase‐3/7 activity. Ac‐DEVD‐AMC generates the AMC fluorophore in the presence of caspase 3/7, which produces bright blue fluorescence. The fluorescence was measured by the FLOUstar OPTIMA plate reader with the excitation at 354 nm and emission at 442 nm.
(§2) The level of caspase 3/7 was also determined using Apotox‐Glo Triple assay. Cells were seeded and drugs were added as described above in Section 2.6.1. After 24 h incubation, caspase 3/7 reagent was prepared by mixing caspase buffer and substrate and 100 μL of reagent was added to each well for 30 min incubation at room temperature. […] The luminescence was measured by the FLOUstar OPTIMA plate reader.

[3] = MTT cytotoxicity assay, non-cancer ARPE19 cells; conditions: human, ARPE19 non-cancer retinal pigment cells
Procedure: Human ovarian carcinoma cells, A2780 (sensitive to chemotherapeutics), A2780/CP70 (resistant to chemotherapeutics), and non‐cancerous cells including PNT2 (normal prostate epithelial cell line), and/or ARPE19 (human retinal pigment cell line) were maintained according to the ATCC and ECACC guidelines.
In vitro chemosensitivity assays were performed using the MTT assay as previously described.[32], [33] Briefly, at 70% confluency, cells were seeded in 96‐well plates at a density of 2000 cells/well. […] After the allocated contact time had elapsed, the media was removed and 0.5% (w/v) MTT solution diluted in complete media (200 μL) was added to each well. Following a 4 h incubation, the supernatants were removed, and the formazan crystals were dissolved in dimethylsulfoxide (150 μL). The absorbance was read at 540 nm on a Tecan Infinite 50 plate UV reader.

[4] = system: A2780/CP70 cells; assay: Annexin V assay, A2780/CP70 cells; assay type: cell-based, human; conditions: A2780/CP70, 50 μM, 24 h
Procedure: The Annexin V assay was performed to differentiate healthy cells from early and late apoptotic cells. Cells were seeded in T25 flasks at 2.75 × 10^5 cells per flask and were incubated for 24 h. After the incubation time elapsed, drugs at concentrations of 10, 30, and 50 μM or vehicle were added to the flasks and further incubated for 24 h. Cells were suspended in PBS at a density of 4 × 10^5 cells/mL, followed by centrifugation at 400 g for 5 min. The supernatant was removed and replaced with 100 μL of Annexin V mix, 94 μL of Roche buffer, 2 μL of Annexin V‐CF488A, 2 μL of 10 μg/mL of propodium iodide (PI), and 2 μL of Hoechst 33342 buffer. Hoechst 33342 buffer in the Annexin V mix binds to the nuclei in the sample and fluoresces violet. The early apoptotic cells are stained with Annexin V‐CF488A, which fluoresces green. The non‐viable cells are stained by PI, and the late apoptotic cells are stained by both PI and Annexin V‐CF488A, which fluoresces red and green, respectively. […] After the incubation time elapsed, 40 μL of samples were loaded on to an A‐2 slide and were analyzed immediately using the NC‐3000 system. The scatter plot of the fluorescence intensity of Annexin V‐CF488A versus the fluorescence intensity of PI was used as a representation of cells in different stages of apoptosis.

[5] = system: A2780/CP70 cells; assay: MTT cytotoxicity assay, A2780/CP70 cells; conditions: for IC50: Homo sapiens, read-out: IC50 cytotoxicity
Procedure: In separate experiments, cells were seeded in 96‐well plates and after 24 h elapsed they were exposed to different concentrations of drugs or vehicle. Cells were then left in the incubator for a further 24 or 48 h. Then the media was replaced with fresh media containing no drug and the cells were left in the incubator. MTT assay was performed after 96 h elapsed from the time when cells were exposed to drugs or vehicle.
The cells were then left in the incubator and MTT assay was performed 96 h following the initial exposure to the drugs.
The selective index (SI) is the ratio of mean IC50 values for non‐cancer cells to cancer cells. […] While the isobologram can be considered predominantly as a graphical depiction of drug interactions, the combination index (CI) is a quantitative representation. It relates the actual drug concentration in the combination to the concentration of the single drug that achieves the same effect. […] Here, CI analysis was used to investigate combinations at 50% cytotoxicity. To this end the IC50 of the viability dose–response curves were determined by non‐linear regression curve fit analysis (GraphPad Prism, v5.00).
CIA+B is the combination index of A and B; C A the concentration of A applied in combination; C B the concentration of B applied in combination; IC50 A the IC50 of drug A when it was applied individually to the cells; IC50 B = IC50 of drug B when it was applied individually to the cells.

[6] = system: caspase 3/7 activity in A2780 cells; assay: Caspase 3/7 assay, A2780 cells; assay type: cell-based, human; conditions: A2780, 24 h contact time, dose-dependent, significant above 10 μM
Procedure: as §1, §2

SMILES: CCCCCc1cc(O)c(C/C=C(\C)CCC=C(C)C)c(O)c1 [CBG, cannabigerol]
- Percentage of apoptotic cells (loss of mitochondrial membrane potential) [1]: induced an increase in the percentage of apoptotic cells
- Caspase 3/7 activity [2]: increased the caspase 3/7 activity
- IC50 at 24 h [3]: 32.1 ± 1.8 µM
- IC50 at 48 h [3]: 21.2 ± 2.7 µM
- IC50 at 72 h [3]: 19.2 ± 1 µM
- IC50 at 96 h [3]: 17.4 ± 2.4 µM
- Cells in early apoptosis [4]: 72 ± 1.4%
- Cells in late apoptosis [4]: 9 ± 1.4%
- IC50 ([5]; A2780/CP70, 24 h): 17.7 ± 0.1 µM
- IC50 ([5]; A2780/CP70, 48 h): 15.4 ± 0.7 µM
- IC50 ([5]; A2780/CP70, 72 h): 12.3 ± 1.4 µM
- IC50 ([5]; A2780/CP70, 96 h): 7.1 ± 0.8 µM
- Selectivity index ([5]; IC50 ARPE19 / IC50 A2780/CP70, 24 h): 1.81
- Selectivity index ([5]; IC50 ARPE19 / IC50 A2780/CP70, 48 h): 1.37
- Selectivity index ([5]; IC50 ARPE19 / IC50 A2780/CP70, 72 h): 1.56
- Selectivity index ([5]; IC50 ARPE19 / IC50 A2780/CP70, 96 h): 2.45
- Selectivity index ([5]; IC50 PNT2 / IC50 A2780/CP70, 48 h): 1.48
- Selectivity index ([5]; IC50 PNT2 / IC50 A2780/CP70, 72 h): 1.59
- Selectivity index ([5]; IC50 PNT2 / IC50 A2780/CP70, 96 h): 2.56
- Caspase 3/7 activity [6]: increased the caspase 3/7 activity
